Measurements from US20260242413A1, “ENDOTOXIN NE[…]” (AMFERIA AB, priority 2023, published 2026).
Where no end group is shown, it is not given here.

System: E. coli (CCUG 29300)
Assay: Endotoxin binding of AMP functionalised crosslinked hydrogel particle dispersion, chromogenic LAL endotoxin assay
Type: cell-based
Settings: E. coli 10^6 CFU/ml, 37° C., 1 hour, 3 hours and 24 hours, FIG. 2 and 3

In the case of “RRPRPRPRPWWWW-NH2 [RRP9W4N, PRELP derived amphiphilic antimicrobial peptide, free in PBS solution]”, the endotoxin neutralisation is reported as “neutralised endotoxins in all measured durations of incubation”.
